Relative viability data for five cell lines are collected here from the supplement of paper PMC10307832.

Holding throughout (experiment): relative viability (nuclei count vs DMSO), 5 days (fraction); higher = more cells survive
Compound in test [1]: C1CNCCC1C2=CC(=NN2)C3=CC=NC=C3 + CCNC(=O)c1noc(-c2cc(C(C)C)c(O)cc2O)c1-c1ccc(CN2CCOCC2)cc1 [Luminespib] (partner 0.01 µM)
In a few lines: (§1)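 Medians of duplicate plates are given as relative viability. That measure is the nuclei count in treated wells divided by the count in vehicle wells. Counts were taken on 4× images of lung cancer cell lines in 1536-well plates, 5 days after pin-tool dosing the day after seeding with one drug alone or a fixed anchor-drug dose plus five library-drug doses (not always all listed) in √10 steps.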

Compound in test [2]: C[C@@H](N)c1ccc(C(=O)Nc2ccnc3[nH]ccc23)cc1 + Cc1cc(Nc2cc(N3CCN(C)CC3)nc(Sc3ccc(NC(=O)C4CC4)cc3)n2)n[nH]1 [Tozasertib] (partner 0.1 µM)
An outline of the steps:
as §1

Compound in test [3]: C[C@@H](N)c1ccc(C(=O)Nc2ccnc3[nH]ccc23)cc1 + N=C(N)NC(=N)NCCc1ccccc1 [Phenformin] (partner 250 µM)
An outline of the steps:
as §1

Compound in test [4]: C[C@@H](N)c1ccc(C(=O)Nc2ccnc3[nH]ccc23)cc1 + NC(=O)Nc1cc(-c2cccc(F)c2)sc1C(=O)N[C@H]1CCCNC1 [AZD7762] (partner 0.2 µM)
An outline of the steps: as §1

Turning to NCI-H3122, the relative viability stood at 0.109 in test [1] (first compound 0.08 µM); 0.114 in test [1] (first compound 0.8 µM); 0.1 in test [1] (first compound 2.53 µM); 0.104 in test [1] (first compound 8 µM); 0.397 in test [2] (first compound 0.04 µM); 0.357 in test [2] (first compound 0.1265 µM). The relative viability came to 0.497 in test [2] (first compound 0.4 µM); 0.468 in test [2] (first compound 4 µM); 0.352 in test [3] (first compound 0.04 µM); 0.413 in test [3] (first compound 0.1265 µM); 0.39 in test [3] (first compound 0.4 µM); 0.377 in test [3] (first compound 4 µM). Further, the relative viability is 1.13 in test [4] (first compound 0.04 µM); 0.982 in test [4] (first compound 0.1265 µM); 1.06 in test [4] (first compound 0.4 µM); 1.06 in test [4] (first compound 1.265 µM); 0.955 in test [4] (first compound 4 µM).
With PC-3 [JPC-3], the relative viability was 0.643 in test [1] (first compound 0.08 µM); 0.673 in test [1] (first compound 0.8 µM); 0.7 in test [1] (first compound 2.53 µM); 0.556 in test [1] (first compound 8 µM); 0.892 in test [2] (first compound 0.04 µM); 0.839 in test [2] (first compound 0.1265 µM). The relative viability is 0.955 in test [2] (first compound 0.4 µM); 0.967 in test [2] (first compound 1.265 µM); 0.816 in test [2] (first compound 4 µM); 0.473 in test [3] (first compound 0.04 µM); 0.495 in test [3] (first compound 0.1265 µM); 0.477 in test [3] (first compound 0.4 µM). Further, the relative viability was 0.474 in test [3] (first compound 1.265 µM); 0.456 in test [3] (first compound 4 µM); 1.09 in test [4] (first compound 0.04 µM); 0.87 in test [4] (first compound 0.1265 µM); 0.925 in test [4] (first compound 0.4 µM); 1.05 in test [4] (first compound 1.265 µM). Moreover, the relative viability in test [4] (first compound 4 µM) is 0.912.
In the case of PC-14, the relative viability is 0.151 in test [1] (first compound 0.08 µM); 0.162 in test [1] (first compound 0.8 µM); 0.18 in test [1] (first compound 2.53 µM); 0.151 in test [1] (first compound 8 µM); 0.518 in test [2] (first compound 0.04 µM); 0.577 in test [2] (first compound 0.1265 µM). Further, the relative viability in test [2] (first compound 0.4 µM) was 0.543; in test [2] (first compound 1.265 µM), 0.385; in test [2] (first compound 4 µM), 0.429; in test [3] (first compound 0.04 µM), 0.409; in test [3] (first compound 0.1265 µM) it was 0.653; in test [3] (first compound 0.4 µM) it was 0.555. Besides, the relative viability in test [3] (first compound 1.265 µM) stood at 0.348; in test [3] (first compound 4 µM), 0.519; in test [4] (first compound 0.04 µM), 0.251; in test [4] (first compound 0.1265 µM), 0.347; in test [4] (first compound 0.4 µM) it was 0.364; in test [4] (first compound 1.265 µM), 0.313. In addition, the relative viability in test [4] (first compound 4 µM) was determined as 0.469.
As for RERF-LC-KJ, the relative viability worked out at 1.14 in test [1] (first compound 0.08 µM); 1.3 in test [1] (first compound 0.8 µM); 1.45 in test [1] (first compound 2.53 µM); 1.42 in test [1] (first compound 8 µM); 0.643 in test [2] (first compound 0.04 µM); 0.453 in test [2] (first compound 0.1265 µM). The relative viability in test [2] (first compound 0.4 µM) worked out at 0.525; in test [2] (first compound 1.265 µM) it was 0.513; in test [2] (first compound 4 µM) it was 0.422; in test [3] (first compound 0.04 µM), 0.417; in test [3] (first compound 0.1265 µM), 0.435; in test [3] (first compound 0.4 µM), 0.446. For the same cell line, the relative viability in test [3] (first compound 1.265 µM) came to 0.434; in test [3] (first compound 4 µM), 0.425; in test [4] (first compound 0.04 µM), 1.08; in test [4] (first compound 0.1265 µM), 1.04; in test [4] (first compound 0.4 µM) it was 1.33; in test [4] (first compound 1.265 µM) it was 1.08. Besides, in test [4] (first compound 4 µM), the relative viability is 1.18.
Take SW 900: the relative viability was determined as 0.187 in test [1] (first compound 0.08 µM); 0.172 in test [1] (first compound 0.8 µM); 0.165 in test [1] (first compound 2.53 µM); 0.168 in test [1] (first compound 8 µM); 0.551 in test [2] (first compound 0.04 µM); 0.561 in test [2] (first compound 0.1265 µM). The relative viability in test [2] (first compound 0.4 µM) came to 0.551; in test [2] (first compound 1.265 µM) it was 0.663; in test [2] (first compound 4 µM), 0.714; in test [3] (first compound 0.04 µM) it was 0.852; in test [3] (first compound 0.1265 µM) it was 0.687; in test [3] (first compound 0.4 µM), 0.512. For the same cell line, the relative viability came out at 0.618 in test [3] (first compound 1.265 µM); 0.531 in test [3] (first compound 4 µM); 0.772 in test [4] (first compound 0.04 µM); 0.698 in test [4] (first compound 0.1265 µM); 0.661 in test [4] (first compound 0.4 µM); 0.777 in test [4] (first compound 1.265 µM). For the same cell line, the relative viability in test [4] (first compound 4 µM) worked out at 0.878.
